{"source": "patent US20260240839A1", "about": "“Pharmaceutical composition of tetramethylpyrazine nitrone for injection and a method for manufacture thereof” (GUANGZHOU MAGPIE PHARMACEUTICALS CO., LTD., priority 2022, published 2026)", "assay": "Solution stability of tetramethylpyrazine nitrone in different solvents at 25° C.", "format": "physicochemical", "conditions": "for Total impurities / Content: 25° C.", "experimental": "Here, “NA” indicates not measured. “Total impurities” at 0 hour refer to that detected when API of tetramethylpyrazine nitrone is just prepared into a solution.\nIn 0.1 M HCl, the stability of tetramethylpyrazine nitrone compounds is low, and they begin to degrade as soon as they form a solution. After 3 hours, they completely degrade, and the total content of related substances reaches 100%.", "data": [{"smiles": "Cc1nc(C)c(/C=[N+](\\[O-])C(C)(C)C)nc1C", "note": "[tetramethylpyrazine nitrone]", "values": [{"measurement": "Total impurities", "setting": "0.1M HCl, 0 h", "value": 59.28, "unit": "%"}, {"measurement": "Content", "setting": "0.1M HCl, 3 h", "value": 0, "unit": "%"}, {"measurement": "Total impurities", "setting": "0.1M HCl, 3 h", "value": 100, "unit": "%"}, {"measurement": "Content", "setting": "0.1M HCl, 24 h", "value": 0, "unit": "%"}, {"measurement": "Total impurities", "setting": "0.1M HCl, 24 h", "value": 100, "unit": "%"}, {"measurement": "Total impurities", "setting": "0.1M NaOH, 0 h", "value": 17.78, "unit": "%"}, {"measurement": "Content", "setting": "0.1M NaOH, 3 h", "value": 81.8, "unit": "%"}, {"measurement": "Total impurities", "setting": "0.1M NaOH, 3 h", "value": 31.38, "unit": "%"}, {"measurement": "Content", "setting": "0.1M NaOH, 24 h", "value": 56.54, "unit": "%"}, {"measurement": "Total impurities", "setting": "0.1M NaOH, 24 h", "value": 49.23, "unit": "%"}, {"measurement": "Content", "setting": "Pure water, 0 h", "value": 100, "unit": "%"}, {"measurement": "Total impurities", "setting": "Pure water, 0 h", "value": 0.27, "unit": "%"}, {"measurement": "Content", "setting": "Pure water, 3 h", "value": 99.71, "unit": "%"}, {"measurement": "Total impurities", "setting": "Pure water, 3 h", "value": 0.39, "unit": "%"}, {"measurement": "Content", "setting": "Pure water, 24 h", "value": 98.54, "unit": "%"}, {"measurement": "Total impurities", "setting": "Pure water, 24 h", "value": 1.16, "unit": "%"}, {"measurement": "Stability in solution", "setting": "buffer solutions ranging from pH 6.0 to pH 7.4 at 25° C.", "value": "relatively stable"}, {"measurement": "Total impurities", "setting": "pH 4.5 Acetate buffer, 0 h", "value": 8.36, "unit": "%"}, {"measurement": "Content", "setting": "pH 4.5 Acetate buffer, 3 h", "value": 83.64, "unit": "%"}, {"measurement": "Total impurities", "setting": "pH 4.5 Acetate buffer, 3 h", "value": 23.6, "unit": "%"}, {"measurement": "Content", "setting": "pH 4.5 Acetate buffer, 24 h", "value": 60.56, "unit": "%"}, {"measurement": "Total impurities", "setting": "pH 4.5 Acetate buffer, 24 h", "value": 44.44, "unit": "%"}, {"measurement": "Content", "setting": "pH 6.0 phosphate buffer, 0 h", "value": 100, "unit": "%"}, {"measurement": "Total impurities", "setting": "pH 6.0 phosphate buffer, 0 h", "value": 0.33, "unit": "%"}, {"measurement": "Content", "setting": "pH 6.0 phosphate buffer, 3 h", "value": 98.39, "unit": "%"}, {"measurement": "Total impurities", "setting": "pH 6.0 phosphate buffer, 3 h", "value": 0.44, "unit": "%"}, {"measurement": "Content", "setting": "pH 6.0 phosphate buffer, 6 h", "value": 98.65, "unit": "%"}, {"measurement": "Total impurities", "setting": "pH 6.0 phosphate buffer, 6 h", "value": 0.9, "unit": "%"}, {"measurement": "Content", "setting": "pH 6.0 phosphate buffer, 24 h", "value": 96.62, "unit": "%"}, {"measurement": "Total impurities", "setting": "pH 6.0 phosphate buffer, 24 h", "value": 2.19, "unit": "%"}, {"measurement": "Content", "setting": "pH 6.4 Phosphate buffer, 0 h", "value": 100, "unit": "%"}, {"measurement": "Total impurities", "setting": "pH 6.4 Phosphate buffer, 0 h", "value": 0.31, "unit": "%"}, {"measurement": "Content", "setting": "pH 6.4 Phosphate buffer, 3 h", "value": 98.85, "unit": "%"}, {"measurement": "Total impurities", "setting": "pH 6.4 Phosphate buffer, 3 h", "value": 0.4, "unit": "%"}, {"measurement": "Content", "setting": "pH 6.4 Phosphate buffer, 24 h", "value": 97.78, "unit": "%"}, {"measurement": "Total impurities", "setting": "pH 6.4 Phosphate buffer, 24 h", "value": 0.93, "unit": "%"}, {"measurement": "Content", "setting": "pH 7.4 Phosphate buffer, 0 h", "value": 100, "unit": "%"}, {"measurement": "Total impurities", "setting": "pH 7.4 Phosphate buffer, 0 h", "value": 0.47, "unit": "%"}, {"measurement": "Content", "setting": "pH 7.4 Phosphate buffer, 3 h", "value": 100.83, "unit": "%"}, {"measurement": "Total impurities", "setting": "pH 7.4 Phosphate buffer, 3 h", "value": 0.39, "unit": "%"}, {"measurement": "Content", "setting": "pH 7.4 Phosphate buffer, 24 h", "value": 99.92, "unit": "%"}, {"measurement": "Total impurities", "setting": "pH 7.4 Phosphate buffer, 24 h", "value": 1, "unit": "%"}, {"measurement": "Stability in solution", "setting": "solutions with a pH lower than 6.0", "value": "low"}]}]}
